In patent US9155790B2, “Methods and compositions for modulating ocular damage” (University of Lousiville Research Foundation, Inc., priority 2010, dated 2015):
Entries after “also recorded” stand apart in the source; their conditions may differ.

Columns and labels:
[1] = test system: primary human RPE cells; assay: EMT of cultured primary human RPE cells (morphology and qPCR); format: cell-based
Method: To determine whether MIF inhibition can prevent the formation proliferative vitreoretinopathy (PVR) by inhibiting epithelio-mesenchymal transformation (EMT) of RPE, primary human RPE cells from two young donors were plated on tissue-culture plastic and maintained in DMEM H16 supplemented with 10% FBS and a MIF inhibitor (4-IPP; 25-50 μM) for 3 weeks. Control cells were exposed only to the solvent (DMSO/Corn oil).
Morphology and qPCR for microphthalmia transcription factor (MITF), plasminogen activator inhibitor type-1 (PAI-1), vimentin, and N-cadherin were used to assay for the presence of EMT.
Human RPE cells were isolated freshly (<24 hours) from human donor eyes. Harvested RPE cells were cultured on tissue-culture plates. 25 μM of 4-IPP, a small molecule antagonist of MIF, was added to the culture medium every other day. Untreated wells were taken as control. 21 days later, cells were photographed and RNA was isolated for qPCR analyses.

[2] = test system: C57BL/6 mice; assay: Laser-induced subretinal choroidal neovascularization (CNV) in mice; format: in vivo; settings: for CNV yield (percent of the spots with CNV): read 10 days after laser
Text: In order to test the efficacy of MIF inhibitors to prevent subretinal or intraretinal neovascularization, subretinal choroidal neovascularization (CNV) was induced in C57BL/6 mice (n=3; 6 eyes/per experimental group) using a double-frequency YAG laser (532 nm). Laser parameters were 600 mW of power, 0.1 sec duration, and a spot size of 50 micrometers. Approximately 8-12 spots per eye were placed. One group of animals received 500 micrograms of 4-(2-fluorophenyl)-6-iodopyrimidine (Compound 1) into the posterior subtenon space through a 32-G needle 24 hours before laser application. Compound 1 was dissolved in 1:1 mixture of DMSO and corn oil solvent. The injection volume was 5 microliters.
Another group of animals received the drug six days after the laser photocoagulation when subretinal neovascularization is at its maximum growth. This scenario exemplified the use of MIF inhibitors (including, but not limited to Compound 1) in the treatment of active wet age-related macular degeneration (AMD). The two […] controls received either PBS or DMSO:corn oil mixture into the subTenon space. MIF^−/− animals (i.e., mice with a homozygous knock out of the MIF gene) were also taken as the negative control.
Ten days after the laser photocoagulation animals were perfused with high molecular weight dextran (2 megadalton)-conjugated fluorescein under deep anesthesia and then sacrificed. Choroidal neovascularization (CNV) yield (=percent of the spots with CNV) was determined under a fluorescent microscope.
The effect of MIF neutralization on retinal pigment epithelial (RPE) differentiation and wound healing properties in animal models of chemical RPE debridement and laser-induced choroidal neovascularization (CNV) was tested. CNV was induced in C57BL/6 mice (n=18) using a double-frequency YAG laser (532 nm; 600 mW; 0.1 sec; 50 μm; 8-12 spots/eye). The experimental group (n=6) received 500 μg/in 5 μl of a MIF inhibitor (4-iodo-6-(2-fluorophenyl)pyrimidine; Compound 1) in the posterior subtenon space 24 hours before laser application. Ten (10) days later, animals were sacrificed and induced CNV (i.e., yield) was determined.
(§1) Another group of animals received MIF-inhibitor 6 days after laser treatment to determine the effect of MIF-neutralization on established CNV. RPE loss was also mimicked in twelve C57BL/6 mice by patchy debridement of RPE using intraperitoneal sodium iodate injection (25 mg/kg). Seven days later, animals received the subtenon MIF inhibitor and RPE resurfacing was determined on day 21 by morphometric image analysis. In all experiments, MIF^−/− animals and wild type animals that received the solvent (DMSO/Corn oil) and/or PBS were used as controls.

[3] = test system: C57BL/6 mice; assay: Proliferative vitreoretinopathy (PVR) model, surgically induced retinal detachment in mice; format: in vivo; settings: 500 μg in 5 μl subtenon on days 0 and 5; light microscopy day 10
Method: The effect of MIF inhibition on EMT was further tested in vivo using an animal model of PVR. Six (6) adult C57BL/6 mice were anesthetized with pentobarbital sodium (70 mg/kg i.p.) and a linear incision was made in the cornea. The lens was removed and a tear was created in the peripheral retina using a 32G needle. The corneal incision was then sutured with 10-0 nylon.
The experimental group received 500 μg/in 5 μl of a MIF inhibitor (4-iodo-6-(2-fluorophenyl)pyrimidine; Compound 1) in the posterior subtenon space on Days 0 and 5, whereas control animals received the solvent. Animals were sacrificed on Day 10 and light microscopy was used to assess the presence and extent of PVR. MIF^−/− animals (n=3) were also used as control.
In order to test the safety and efficacy of MIF neutralization in vivo, the model disclosed in Saika et al., 2004 was employed.
Briefly, retinal detachment was created in three C57BL6 mice. Animals underwent a lensectomy/vitrectomy procedure under ketamine/xylazine anesthesia. These procedures were done through a central slit corneal incision. After the completion of the procedure, a tear was created in the peripheral retina under the microscope and the sensory retina was detached. Next, the cornea was closed with a 10-0 nylon suture and each animal was returned to its cage. […]

[4] = test system: C57BL/6 mice; assay: Sodium iodate chemical RPE debridement model of geographic atrophy; format: in vivo
Method: as §1
Immunostaining for RPE65, vimentin, E-cadherin, and N-cadherin was used to identify and characterize RPE differentiation.
Sodium iodate was employed for chemical debridement of RPE to mimic geographic atrophy. Mice received NalO3 (25 mg/kg) intraperitoneally followed by subtenon injection of Compound 1 (500 μg in 5 μL) on day 7. Mice were sacrificed on Day 21 and the surface coverage by RPE cells was determined.

[5] = test system: Brown Norway rats; assay: PVR / retinal detachment model in Brown Norway rats; format: in vivo
Method: Briefly, retinal detachment was created in three C57BL6 mice. Animals underwent a lensectomy/vitrectomy procedure under ketamine/xylazine anesthesia. These procedures were done through a central slit corneal incision. After the completion of the procedure, a tear was created in the peripheral retina under the microscope and the sensory retina was detached. Next, the cornea was closed with a 10-0 nylon suture and each animal was returned to its cage. The experimental group received 500 μg/in 5 μl of the MIF inhibitor 4-(2-fluorophenyl)-6-iodopyrimidine (Compound 1) in the posterior subtenon space on days 0 and 5, whereas control animals received the solvent (i.e., a 1:1 mixture of DMSO and corn oil). Animals were sacrificed on day 10 and light microscopy was used to assess the presence and extent of PVR. MIF^−/− knockout animals (n=3) were also used as a control.
Similar experiments were also repeated using Brown Norway rats. […] However, in control animals (FIG. 5 I) numerous RPE cells became migratory in the vitreous and started to form epiretinal membranes

[6] = 25 μM every other day, 21 days, qPCR
[7] = 25-50 μM for 3 weeks, qPCR vs control

Ic1cc(-c2ccccc2)ncn1 [Compound 4-IPP, 4-iodo-6-phenylpyrimidine]
MITF mRNA level, control lower than inhibitor-treated cells [1, 6]: 1.6 fold | N-cadherin mRNA level, control higher than inhibitor-treated cells [1, 6]: 43.2 fold | PAI-1 mRNA level, control higher than inhibitor-treated cells [1, 6]: 19.7 fold | vimentin mRNA level, control higher than inhibitor-treated cells [1, 6]: 8.5 fold | cell number and morphology of cultured human RPE cells (FIG. 4A) ([1]; 25 μM every other day, 21 days, vs control wells): significantly fewer in number, were uniformly pigmented, retained a classical cuboidal epithelial morphology | increase in MITF mRNA level [1, 7]: 1.6 × | reduction of N-cadherin mRNA level [1, 7]: 43.2 × | reduction of PAI-1 mRNA level [1, 7]: 19.7 × | reduction of vimentin mRNA level [1, 7]: 8.5 × | cell number and morphology of cultured human RPE cells ([1]; 25-50 μM for 3 weeks, vs solvent control): significantly fewer in number but maintained their typical cuboidal epithelial morphology

Fc1ccccc1-c1cc(I)ncn1 [Compound 1, 4-(2-fluorophenyl)-6-iodopyrimidine]
CNV yield (percent of the spots with CNV) ([2]; 500 μg in 5 μl posterior subtenon, 24 hours before laser (pre-laser)): 10.7% | CNV yield (percent of the spots with CNV) ([2]; 500 μg subtenon 6 days after laser (post-laser, established CNV)): 12.9% | RPE growth over the laser spot ([2]; histology / fluorescence microscopy of laser spots): RPE cells proliferated to cover the spot; also recorded: RPE proliferated over the laser spot and sealed it off from neovascularization; also recorded: proliferate over the laser spot and seal it off from neovascularization | occurrence of CNV (FIG. 1) ([2]; post-laser application (5th bar)): significantly suppressed the occurrence of CNV | occurrence of CNV (FIG. 1) ([2]; pre-laser application (4th bar)): significantly suppressed the occurrence of CNV | RPE cell layering / morphology in the subretinal space [3]: remained as a monolayer; also recorded: maintained an epitheloid monolayer in the subretinal space | formation / contraction of peri-retinal membranes (PVR) [3]: significantly inhibited the formation of peri-retinal membranes; also recorded: No physical distortion related with the contraction of periretinal membranes was noted | differentiation of proliferating RPE cells (immunostaining) ([4]; MIF-neutralized animals, RPE65, vimentin, E-cadherin, N-cadherin staining): maintained differentiated cuboidal morphology and expressed E-cadherin and RPE-65 | surface coverage by RPE cells vs vehicle (FIG. 7) ([4]; NaIO3 25 mg/kg i.p., 500 μg in 5 μL subtenon on day 7, day 21): statistically significant greater surface coverage | surface coverage by RPE cells ([4]; sodium iodate 25 mg/kg i.p., subtenon MIF inhibitor on day 7, morphometric image analysis on day 21): 93.8±6.3% | RPE resurfacing of the denuded Bruch's membrane (FIGS. 8, 9) ([4]; three weeks after partial destruction of RPE cells, vs vehicle): proliferated at a higher rate, resurfaced the Bruch's membrane, and formed an epithelial monolayer; also recorded: better resurfacing of the denuded Bruch's membrane with RPE cells; also recorded: RPE cells established a monolayer in many places; also recorded: proliferated at a higher rate; resurfaced the Bruch's membrane and formed an epithelial monolayer | RPE cell proliferation (PCNA staining) ([4]; vs vehicle control mice, FIG. 10A): increased cell proliferation; also recorded: higher proliferation of the RPE cells | apoptotic cell death (TUNEL staining) ([4]; vs vehicle control mice, FIG. 10B): decreased apoptotic cell death | RPE morphology and invasion of subretinal / intravitreal space ([5]; Brown Norway rats, FIG. 5H, vs control): maintained their epitheloid morphology and did not invade the subretinal and/or intravitreal space | preservation of photoreceptor cells in the detached retina ([5]; FIG. 6A vs vehicle control FIG. 6B): better preservation of the photoreceptor cells in the detached retina; also recorded: better preserved | outer nuclear layer thickness ([5]; detached retina, FIG. 6A vs controls): thicker outer nuclear layer
